The text below walks through data of US10633419B2, “Immunomodulators” (BRISTOL-MYERS SQUIBB COMPANY, priority 2014, dated 2020).

Starred links: 1 amine or outer side, 2 acyl side, 3 side chain; linkers in the order of their positions; H or OH if unused. Positions of bridges follow the written chain, without caps; N, C: chain ends. Non-standard residues stand in square brackets, D forms with d. Residues, ends and D or L forms follow the SMILES beside them. Groups on a side chain read outwards from the residue. *: point of attachment. X6 = O=C(O)CCCCCCCCCCCCCCCCC(=O)N[C@@H](CCC(=O)NCCCOCCOCCOCCCN*)C(=O)O; X18 = O=C(O)CCCCCCCCCCCCCCC(=O)N[C@@H](CC(=O)NCCCOCCOCCOCCCN*)C(=O)O; X11 = O=C(O)CCCCCCCCCCCCC(=O)N[C@@H](CCC(=O)NCCCOCCOCCOCCCN*)C(=O)O; Trp(1-CH2COOH) = N[C@@H](Cc1cn(CC(=O)O)c2ccccc12)C(=O)O; X27 = CCCCCCCCCCCCCCCCNC(=O)CCC(=O)NCCCOCCOCCOCCCN*; X9 = O=C(O)CCCCCCCCCCCCCCCCC(=O)N[C@@H](CCN*)C(=O)O; Phe(3,4,5-F3) = N[C@@H](Cc1cc(F)c(F)c(F)c1)C(=O)O; C18 diacid = O=C(O)CCCCCCCCCCCCCCCCC(=O)*; γGlu = O=C(O)[C@H](CCC(=O)[*:2])N[*:1]; d(cisHyp) = O=C(O)[C@H]1C[C@@H](O)CN1; βAsp = O=C(O)[C@H](CC(=O)[*:2])N[*:1]; X19 = O=C(C1C[C@H](O)CN1[*:1])[*:2]; Hyp = O=C(O)[C@@H]1C[C@@H](O)CN1; NMeF = CN[C@@H](Cc1ccccc1)C(=O)O; NMeNle = CCCC[C@H](NC)C(=O)O; Pip = O=C(O)[C@@H]1CCCCN1; dPip = O=C(O)[C@H]1CCCCN1; NMeA = CN[C@@H](C)C(=O)O; Aun = NCCCCCCCCCCC(=O)O; Dab = NCC[C@H](N)C(=O)O; Dap = NC[C@H](N)C(=O)O; AEA = NCCOCC(=O)O; Sar = CNCC(=O)O

The target of this test is T1, PD-L1 (Homo sapiens, UniProt Q9NZQ7).
T1 construct: hPDL1(19-239)-TVMV-His; made in house; host or cells: HEK293T
T1 sequence (Q9NZQ7 with tags, fused parts or gaps): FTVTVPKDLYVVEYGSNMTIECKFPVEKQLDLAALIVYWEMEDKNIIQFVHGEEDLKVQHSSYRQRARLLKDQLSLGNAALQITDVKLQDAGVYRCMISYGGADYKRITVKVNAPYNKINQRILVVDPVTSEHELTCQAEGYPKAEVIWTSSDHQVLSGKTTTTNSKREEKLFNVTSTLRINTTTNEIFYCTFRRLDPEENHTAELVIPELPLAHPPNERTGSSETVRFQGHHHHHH
In words: PD-1/PD-L1 Homogenous Time-Resolved Fluorescence (HTRF) binding assay (PD-1-Ig/PD-L1-His). The note with it: inhibition of PD-1-Ig binding to PD-L1-TVMV-His; value given as range class; read-out: HTRF IC50. A digest of the protocol: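 HTRF competition in dPBS with 0.1% BSA and 0.05% Tween-20: 20 nM PD-1-Ig added after 15 min compound pre-incubation with 10 nM PD-L1-His, then another 15 min. Signal (665/620 nm) after 30 min with APC anti-His (20 nM) and Eu anti-Ig (1 nM).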
As to `CCCC[C@H]1C(=O)N2C[C@H](O)C[C@@H]2C(=O)N[C@@H](CC(=O)O)C(=O)N[C@@H](C(C)C)C(=O)N(C)[C@@H](Cc2ccccc2)C(=O)N[C@@H](Cc2ccc(O)cc2)C(=O)N2CCCC[C@@H]2C(=O)N[C@@H](Cc2c[nH]c3ccccc23)C(=O)N[C@@H](Cc2ccc(O)cc2)C(=O)N[C@@H](CC(C)C)C(=O)N[C@H](C(=O)NCC(=O)NCC(=O)NCC(=O)N[C@@H](CCCCN)C(N)=O)CSCC(=O)N[C@@H](Cc2cc(F)c(F)c(F)c2)C(=O)N(C)[C@@H](Cc2ccccc2)C(=O)N1C` [Example 3623] ({CH2CO}-[Phe(3,4,5-F3)][NMeF][NMeNle][d(cisHyp)]DV[NMeF]Y[dPip]WYLCGGGK-NH2; thioether N-13), the half-inhibitory concentration (IC50) (commonly the concentration that inhibits the measured activity by half) is 0.3 to 9.9 nM.

For `CCCC[C@H]1C(=O)N(C)[C@@H](CCCC)C(=O)N[C@@H](CC(C)C)C(=O)N[C@H](C(=O)NCCCCCCCCCCC(=O)NCCCCCCCCCCC(=O)O)CSCC(=O)N[C@@H](Cc2ccc(O)cc2)C(=O)N(C)[C@@H](C)C(=O)N[C@@H](CC(N)=O)C(=O)N2CCC[C@H]2C(=O)N[C@@H](CN)C(=O)N[C@@H](CCC(N)=O)C(=O)N2C[C@H](O)C[C@H]2C(=O)N[C@@H](Cc2c[nH]c3ccccc23)C(=O)N[C@@H](CO)C(=O)N[C@@H](Cc2cn(CC(=O)O)c3ccccc23)C(=O)N1C` [Example 11089] ({CH2CO}-Y[NMeA]NP[Dap]Q[Hyp]WS[Trp(1-CH2COOH)][NMeNle][NMeNle]LC[Aun][Aun]-OH; thioether N-14), the IC50 is 10 to 99 nM.

With `CCCC[C@H]1C(=O)N(C)[C@@H](CCCC)C(=O)N[C@@H](CCC(=O)O)C(=O)N[C@H](C(=O)NCC(=O)N[C@@H](CC(=O)NCCCOCCOCCOCCCNC(=O)CC[C@H](NC(=O)CCCCCCCCCCCCCCCCC(=O)O)C(=O)O)C(=O)O)CSCC(=O)N[C@@H](Cc2ccc(O)cc2)C(=O)N(C)[C@@H](C)C(=O)N[C@@H](CC(=O)O)C(=O)N(C)CC(=O)N[C@@H](Cc2c[nH]cn2)C(=O)N[C@@H](CCCCN)C(=O)N2C[C@H](O)C[C@H]2C(=O)N[C@@H](Cc2c[nH]c3ccccc23)C(=O)N[C@@H](CCN)C(=O)N[C@@H](Cc2cn(CC(=O)O)c3ccccc23)C(=O)N1C` [Example 11174] ({CH2CO}-Y[NMeA]D[Sar]HK[Hyp]W[Dab][Trp(1-CH2COOH)][NMeNle][NMeNle]ECGD(X6)-OH; thioether N-14), the IC50 fell in the range of 10 to 99 nM.

For `CCCC[C@H]1C(=O)N(C)[C@@H](CCCC)C(=O)N[C@@H](CC(C)C)C(=O)N[C@H](C(=O)NCC(=O)N[C@@H](CC(=O)NCCOCC(=O)NCC[C@H](NC(=O)CCCCCCCCCCCCCCCCC(=O)O)C(=O)O)C(=O)O)CSCC(=O)N[C@@H](Cc2ccc(O)cc2)C(=O)N2CCCC[C@H]2C(=O)N[C@@H](CC(N)=O)C(=O)N2CCC[C@H]2C(=O)N[C@@H](CN)C(=O)N[C@@H](CC(C)C)C(=O)N2C[C@H](O)C[C@H]2C(=O)N[C@@H](Cc2c[nH]c3ccccc23)C(=O)N[C@@H](CCN)C(=O)N[C@@H](Cc2cn(CC(=O)O)c3ccccc23)C(=O)N1C` [Example 13159] ({CH2CO}-Y[Pip]NP[Dap]L[Hyp]W[Dab][Trp(1-CH2COOH)][NMeNle][NMeNle]LCG[βAsp][AEA]-X9; thioether N-14), the IC50 fell in the range of 0.3 to 9.9 nM.

For `CCCC[C@H]1C(=O)N(C)[C@@H](CCCC)C(=O)N[C@@H](CC(C)C)C(=O)N[C@H](C(=O)N[C@@H](CC(=O)O)C(=O)N[C@@H](CCC(=O)NCCCOCCOCCOCCCNC(=O)CC[C@H](NC(=O)CCCCCCCCCCCCC(=O)O)C(=O)O)C(=O)O)CSCC(=O)N[C@@H](Cc2ccc(O)cc2)C(=O)N(C)[C@@H](C)C(=O)N[C@@H](CC(N)=O)C(=O)N2CCC[C@H]2C(=O)N[C@@H](CN)C(=O)N[C@@H](CC(C)C)C(=O)N2C[C@H](O)C[C@H]2C(=O)N[C@@H](Cc2c[nH]c3ccccc23)C(=O)N[C@@H](CCN)C(=O)N[C@@H](Cc2cn(CC(=O)O)c3ccccc23)C(=O)N1C` [Example 11261] ({CH2CO}-Y[NMeA]NP[Dap]L[Hyp]W[Dab][Trp(1-CH2COOH)][NMeNle][NMeNle]LCDE(X11)-OH; thioether N-14), the IC50 fell in the range of 0.3 to 9.9 nM.

Turning to `CCCC[C@H]1C(=O)N(C)[C@@H](CCCC)C(=O)N[C@@H](CCC(=O)O)C(=O)N[C@H](C(=O)NCC(=O)N[C@@H](Cc2cn(CC[C@H](NC(=O)CCCCCCCCCCCCCCC(=O)O)C(=O)O)nn2)C(N)=O)CSCC(=O)N[C@@H](Cc2ccc(O)cc2)C(=O)N(C)[C@@H](C)C(=O)N[C@@H](CC(=O)O)C(=O)N2CCC[C@H]2C(=O)N[C@@H](Cc2c[nH]cn2)C(=O)N[C@@H](CCC(N)=O)C(=O)N2C[C@H](O)C[C@H]2C(=O)N[C@@H](Cc2c[nH]c3ccccc23)C(=O)N[C@@H](CO)C(=O)N[C@@H](Cc2c[nH]c3ccccc23)C(=O)N1C` [Example 14068], the IC50 was in the range of 10 to 99 nM.

As for `CCCC[C@H]1C(=O)N(C)[C@@H](CCCC)C(=O)N[C@@H](CC(C)C)C(=O)N[C@H](C(=O)NCC(=O)N[C@@H](CCC(=O)NCCCOCCOCCOCCCNC(=O)C[C@H](NC(=O)CCCCCCCCCCCCCCC(=O)O)C(=O)O)C(=O)O)CSCC(=O)N[C@@H](Cc2ccc(O)cc2)C(=O)N(C)[C@@H](C)C(=O)N[C@@H](CC(N)=O)C(=O)N2CCC[C@@H]2C(=O)N[C@@H](CN)C(=O)N[C@@H](CC(C)C)C(=O)N2C[C@@H](O)CC2C(=O)N[C@@H](Cc2c[nH]c3ccccc23)C(=O)N[C@@H](CCN)C(=O)N[C@@H](Cc2cn(CC(=O)O)c3ccccc23)C(=O)N1C` (stereo partly drawn) [Example 11243] ({CH2CO}-Y[NMeA]N[dP][Dap]L[X19]W[Dab][Trp(1-CH2COOH)][NMeNle][NMeNle]LCGE(X18)-OH; thioether N-14), the IC50 was in the range of 100 to 1600 nM.

As to `CCCC[C@H]1C(=O)N(C)[C@@H](CCCC)C(=O)N[C@@H](CC(C)C)C(=O)N[C@H](C(=O)NCC(=O)N[C@@H](CNC(=O)CC[C@H](NC(=O)CCCCCCCCCCCCCCCCC(=O)O)C(=O)O)C(=O)O)CSCC(=O)N[C@@H](Cc2ccc(O)cc2)C(=O)N2CCCC[C@H]2C(=O)N[C@@H](CC(N)=O)C(=O)N2CCC[C@H]2C(=O)N[C@@H](CN)C(=O)N[C@@H](CC(C)C)C(=O)N2C[C@H](O)C[C@H]2C(=O)N[C@@H](Cc2c[nH]c3ccccc23)C(=O)N[C@@H](CCN)C(=O)N[C@@H](Cc2cn(CC(=O)O)c3ccccc23)C(=O)N1C` [Example 13152] ({CH2CO}-Y[Pip]NP[Dap]L[Hyp]W[Dab][Trp(1-CH2COOH)][NMeNle][NMeNle]LCG[Dap]([γGlu-C18 diacid])-OH; thioether N-14), the IC50 lay within 0.3 to 9.9 nM.

Regarding `CCCCCCCCCCCCCCCCNC(=O)CCC(=O)NCCCOCCOCCOCCCNC(=O)CNC(=O)[C@@H]1CSCC(=O)N[C@@H](Cc2ccc(O)cc2)C(=O)N(C)[C@@H](C)C(=O)N[C@@H](CC(=O)O)C(=O)N2CCC[C@H]2C(=O)N[C@@H](Cc2cnc[nH]2)C(=O)N[C@@H](CC(C)C)C(=O)N2C[C@H](O)C[C@H]2C(=O)N[C@@H](Cc2c[nH]c3ccccc23)C(=O)N[C@@H](CO)C(=O)N[C@@H](Cc2c[nH]c3ccccc23)C(=O)N(C)[C@@H](CCCC)C(=O)N(C)[C@@H](CCCC)C(=O)N[C@@H](CCCNC(=N)N)C(=O)N1` [Example 11124] ({CH2CO}-Y[NMeA]DPHL[Hyp]WSW[NMeNle][NMeNle]RCG-X27; thioether N-14), the IC50 fell in the range of 100 to 1600 nM.
